Consider 25 compounds from US20100144733A1, “Compounds, compositions and methods comprising heteroaromatic derivatives” (Institute for OneWorld Health, priority 2008, published 2010).

Molecules are shown by their SMILES.

The target of the first assay is T1, CFTR (Homo sapiens, UniProt P13569).
T1 construct: endogenous in cells; host or cells: T84 human colonic cells (ECACC)
T1 sequence (P13569 whole entry): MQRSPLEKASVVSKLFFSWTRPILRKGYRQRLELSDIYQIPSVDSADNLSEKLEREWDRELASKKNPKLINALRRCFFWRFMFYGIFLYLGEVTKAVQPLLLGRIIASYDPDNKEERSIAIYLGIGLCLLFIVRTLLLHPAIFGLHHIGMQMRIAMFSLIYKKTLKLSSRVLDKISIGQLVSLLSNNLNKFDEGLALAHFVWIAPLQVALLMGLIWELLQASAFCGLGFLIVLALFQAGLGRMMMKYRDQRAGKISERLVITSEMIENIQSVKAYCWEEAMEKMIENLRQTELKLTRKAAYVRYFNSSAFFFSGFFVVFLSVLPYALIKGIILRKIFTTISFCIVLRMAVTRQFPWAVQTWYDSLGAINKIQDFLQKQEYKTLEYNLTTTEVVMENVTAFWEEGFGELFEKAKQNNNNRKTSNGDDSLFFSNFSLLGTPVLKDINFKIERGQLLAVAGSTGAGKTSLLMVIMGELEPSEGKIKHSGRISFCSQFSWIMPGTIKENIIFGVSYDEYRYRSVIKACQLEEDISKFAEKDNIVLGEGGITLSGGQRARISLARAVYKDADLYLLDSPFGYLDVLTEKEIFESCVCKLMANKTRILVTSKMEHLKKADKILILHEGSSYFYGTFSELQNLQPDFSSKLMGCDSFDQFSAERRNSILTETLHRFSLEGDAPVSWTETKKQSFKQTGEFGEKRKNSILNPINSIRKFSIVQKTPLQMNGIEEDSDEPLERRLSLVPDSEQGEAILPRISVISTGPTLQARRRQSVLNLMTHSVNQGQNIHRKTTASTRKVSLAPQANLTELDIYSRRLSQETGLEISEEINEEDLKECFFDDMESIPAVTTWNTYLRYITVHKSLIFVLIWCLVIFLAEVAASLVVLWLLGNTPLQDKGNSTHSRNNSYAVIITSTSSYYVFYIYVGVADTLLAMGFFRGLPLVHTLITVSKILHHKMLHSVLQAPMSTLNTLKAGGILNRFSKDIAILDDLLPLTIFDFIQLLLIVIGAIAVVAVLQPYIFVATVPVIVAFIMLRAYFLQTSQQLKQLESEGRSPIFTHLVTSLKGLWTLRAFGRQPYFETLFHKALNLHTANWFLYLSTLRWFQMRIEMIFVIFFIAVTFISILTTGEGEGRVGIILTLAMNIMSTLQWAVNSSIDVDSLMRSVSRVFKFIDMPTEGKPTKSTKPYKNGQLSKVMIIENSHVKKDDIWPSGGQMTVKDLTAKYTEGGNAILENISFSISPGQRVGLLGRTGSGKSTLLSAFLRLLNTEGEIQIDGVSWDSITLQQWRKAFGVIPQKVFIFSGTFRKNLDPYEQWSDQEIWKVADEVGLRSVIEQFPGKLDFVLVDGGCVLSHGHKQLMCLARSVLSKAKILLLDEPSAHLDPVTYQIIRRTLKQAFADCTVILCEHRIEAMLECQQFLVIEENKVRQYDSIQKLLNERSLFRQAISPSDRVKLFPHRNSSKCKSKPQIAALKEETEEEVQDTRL
Nature of the assay: T84 assay (FLIPR membrane potential dye, forskolin/IBMX-stimulated CFTR channel activity). The format is cell-based. Conditions: imidazole and triazole-containing compounds (Tables 13, 14, 14′), read-out: IC50 (μM) (T84 assay). The protocol: (§1) For example, Human colonic T84 cells can be acquired from the European Collection of Cell Cultures (ECACC) and grown in standard culture conditions as described by the supplier. On the day before assay 25,000 T84 cells per well are plated into standard black walled, clear bottom 384-well assay plates in standard growth medium consisting of DMEM:F12 with 10% FBS and incubated overnight. On the day of the assay the plates are washed using a standard assay buffer (HBSS with 10 mM Hepes) and incubated for 15 minutes in serum free cell culture medium before the addition of a commercially available membrane potential sensitive fluorescent dye (FLIPRRed membrane potential dye, Molecular Devices Corporation). T84 cells are incubated with the FLIPRRed membrane potential dye for 45 minutes in the presence and absence of test compound before being transferred to a commercially available fluorescence imaging plate reader (FLIPR384, Molecular Devices Corporation). Fluorescence levels are monitored continuously every second for 150 seconds; after an initial 10 second baseline, CFTR channel activity is stimulated through the addition of 10 μM forskolin in the presence of 100 μM of the phosphodiesterase inhibitor iso-butyl-methylxanthine (IBMX). Addition of the forskolin leads to the activation of intracellular adenylyl cylase 1, elevating cAMP levels and results in the phosphorylation and opening of CFTR anion channels. CFTR channel opening causes chloride ion efflux and subsequent depolarization of the cells, which is measured by an increase in fluorescence. CFTR inihibitor compounds prevent cell depolarization and the associatred increase in fluorescence.
as §1, with “Human colonic” for “For example, Human colonic”, “T84 cells are acquired from” for “T84 cells can be acquired from”, “(ECACC) and are grown in” for “(ECACC) and grown in”, “10 μM Forskolin in the” for “10 μM forskolin in the”, “fluorescence. CFTR inhibitor compounds prevent” for “fluorescence. CFTR inihibitor compounds prevent”, “and the associated increase in” for “and the associatred increase in”
A word on the IC50: it is the concentration needed to halve the response being measured. Take `C=CCN(Cc1ccc(C(C)C)cc1)C(=O)c1ncn(-c2cc(Cl)c(O)c(Cl)c2)n1` [101i, N-allyl-1-(3,5-dichloro-4-hydroxyphenyl)-N-(4-isopropylbenzyl)-1H-1,2,4-triazole-3-carboxamide]: the half-maximal inhibitory concentration (IC50) is 0.76 µM.
Take `CN(Cc1ccc(OC(F)(F)F)cc1)C(=O)c1ncn(-c2cc(Cl)c(O)c(Cl)c2)n1` [7i, 1-(3,5-dichloro-4-hydroxyphenyl)-N-methyl-N-(4(trifluoromethoxy)benzyl)-1H-1,2,4-triazole-3-carboxamide]: the half-maximal inhibitory concentration (IC50) amounted to 15.7 µM.
On the same count and under the same terms, next, `O=C(NCc1ccccc1C(F)(F)F)c1ncn(-c2cc(Cl)c(O)c(Cl)c2)n1` [35i, 1-(3,5-dichloro-4-hydroxyphenyl)-N-(2-(trifluoromethyl)benzyl)-1H-1,2,4-triazole-3-carboxamide]: 23.8 µM; `CC(C)(C)CCN(Cc1cccc(OC(F)(F)F)c1)C(=O)c1ncn(-c2cc(Cl)c(O)c(Cl)c2)n1` [77i, 1-(3,5-dichloro-4-hydroxyphenyl)-N-(3,3-dimethylbutyl)-N-(3-(trifluoromethoxy)benzyl)-1H-1,2,4-triazole-3-carboxamide]: 3.01 µM.
Still for that read-out and setting: for `COCCOCCOCCOCCN(Cc1cccc(OC(F)(F)F)c1)C(=O)c1ncn(-c2cc(Cl)c(O)c(Cl)c2)n1` [115i, 1-(3,5-dichloro-4-hydroxyphenyl)-N-(2,5,8,11-tetraoxatridecan-13-yl)-N-(3-(trifluoromethoxy)benzyl)-1H-1,2,4-triazole-3-carboxamide] the value was 2.8 µM.

The assay is the same for the next values; noted with them: isoxazole-containing compounds (Table 10, 10′, 11, 11′), read-out: IC50.
For the compound `CN(Cc1cccc(C(F)(F)F)c1)C(=O)c1cc(-c2cc(Cl)c(O)c(Cl)c2)on1` [6g, 5-(3,5-dichloro-4-hydroxyphenyl)-N-methyl-N-(3-(trifluoromethyl)benzyl)isoxazole-3-carboxamide], the 50% inhibitory concentration (IC50) turned out to be 7.02 µM.
For the compound `O=C(c1cc(-c2cc(Cl)c(O)c(Cl)c2)on1)N1CCC(Cc2ccccc2)CC1` [12g, (4-benzylpiperidin-1-yl)(5-(3,5-dichloro-4-hydroxyphenyl)isoxazol-3-yl)methanone], the IC50 was 6.51 µM.

The same assay, now with this note: oxadiazole-containing compounds (a series), average of at least 2 runs unless annotated n = 1, read-out: IC50.
`O=C(NCc1ccc(Oc2cccc(OC(F)(F)F)c2)cc1)c1nc(-c2cc(Cl)c(O)c(Cl)c2)no1` [190a, 3-(3,5-dichloro-4-hydroxyphenyl)-N-(4-(3-(trifluoromethoxy)phenoxy)benzyl)-1,2,4-oxadiazole-5-carboxamide]: the concentration for half-maximal inhibition (IC50) was found to be 11 µM.
For the compound `CN(C(=O)c1nc(-c2cc(Br)c(O)c(Br)c2)no1)c1ccc(OC(F)(F)F)cc1` [3a, 3-(3,5-dibromo-4-hydroxyphenyl)-N-methyl-N-(4(trifluoromethoxy)phenyl)-1,2,4-oxadiazole-5-carboxamide], the IC50 amounted to 2.62 µM.
As for `O=C(COc1c(Br)cc(-c2noc(C(=O)N3CCC(Cc4ccccc4)CC3)n2)cc1Br)N(CCO)CCO` [71a, 2-(4-(5-(4-benzylpiperidine-1-carbonyl)-1,2,4-oxadiazol-3-yl)-2,6-dibromophenoxy)-N,N-bis(2-hydroxyethyl)acetamide], the IC50 came out at 18.9 µM.
Consider `CN(Cc1ccc(-c2ccc(C(F)(F)F)cn2)cc1)C(=O)c1nc(-c2cc(Cl)c(O)c(Cl)c2)no1` [174a, 3-(3,5-dichloro-4-hydroxyphenyl)-N-methyl-N-(4-(5-(trifluoromethyl)pyridin-2-yl)benzyl)-1,2,4-oxadiazole-5-carboxamide], for which the IC50 was 8.07 µM.
Take `O=C(NCc1cc(C(F)(F)F)ccc1F)c1nc(-c2cc(Cl)c(O)c(Cl)c2)no1` [126a, 3-(3,5-dichloro-4-hydroxyphenyl)-N-(2-fluoro-5-(trifluoromethyl)benzyl)-1,2,4-oxadiazole-5-carboxamide]: the 50% inhibitory concentration (IC50) turned out to be 23.4 µM.
For the compound `CC(C)(C)C(=O)N1CCN(C(=O)c2nc(-c3cc(Br)c(O)c(Br)c3)no2)CC1` [93a, 1-(4-(3-(3,5-dibromo-4-hydroxyphenyl)-1,2,4-oxadiazole-5-carbonyl)piperazin-1-yl)-2,2-dimethylpropan-1-one], the half-maximal inhibitory concentration (IC50) turned out to be 5.8 µM.
Same read-out and setting: next, `O=C(NCc1ccc(Oc2ccc(Br)cc2)cc1)c1nc(-c2cc(Cl)c(O)c(Cl)c2)no1` [182a, N-(4-(4-bromophenoxy)benzyl)-3-(3,5-dichloro-4-hydroxyphenyl)-1,2,4-oxadiazole-5-carboxamide]: 8.03 µM; `CN(Cc1ccc(-c2ccccn2)cc1)C(=O)c1nc(-c2cc(Cl)c(O)c(Cl)c2)no1` [186a, 3-(3,5-dichloro-4-hydroxyphenyl)-N-methyl-N-(4-(pyridin-2-yl)benzyl)-1,2,4-oxadiazole-5-carboxamide]: 5.66 µM; `CCCN(Cc1cccc(C(F)(F)F)c1)C(=O)c1nc(-c2cc(Cl)c(O)c(Cl)c2)no1` [108a, 3-(3,5-dichloro-4-hydroxyphenyl)-N-propyl-N-(3-(trifluoromethyl)benzyl)-1,2,4-oxadiazole-5-carboxamide]: 2.79 µM.
With `O=C(NCc1cccc(N2CCCCC2)c1)c1noc(-c2cc(Cl)c(O)c(Cl)c2)n1` [157a, 5-(3,5-dichloro-4-hydroxyphenyl)-N-(3-(piperidin-1-yl)benzyl)-1,2,4-oxadiazole-3-carboxamide], the concentration for half-maximal inhibition (IC50) was determined as 3.33 µM.
Take `O=C(NCc1ccc2sccc2c1)c1nc(-c2cc(Br)c(O)c(Br)c2)no1` [10a, N-(benzo[b]thiophen-5-ylmethyl)-3-(3,5-dibromo-4-hydroxyphenyl)-1,2,4-oxadiazole-5-carboxamide]: the IC50 turned out to be 7.26 µM.
In the case of `O=C(NCc1ccc(F)cc1F)c1noc(-c2cc(Cl)c(O)c(Cl)c2)n1` [114a, 5-(3,5-dichloro-4-hydroxyphenyl)-N-(2,4-difluorobenzyl)-1,2,4-oxadiazole-3-carboxamide], the IC50 amounted to 7.9 µM.
For `CN(C)c1ccc(Oc2ccc(CNC(=O)c3nc(-c4cc(Cl)c(O)c(Cl)c4)no3)cc2)cc1` [197a, 3-(3,5-dichloro-4-hydroxyphenyl)-N-(4-(4-(dimethylamino)phenoxy)benzyl)-1,2,4-oxadiazole-5-carboxamide], the half-maximal inhibitory concentration (IC50) worked out at 7.76 µM.
On the same count and under the same terms, for `O=C(NCc1ccc(Cl)c(C(F)(F)F)c1)c1nc(-c2cc(Br)c(O)c(Br)c2)no1` [30a, N-(4-chloro-3-(trifluoromethyl)benzyl)-3-(3,5-dibromo-4-hydroxyphenyl)-1,2,4-oxadiazole-5-carboxamide] the value was 16.2 µM.
The same measure, in the same setting: next, `CN(Cc1cccc(C(F)(F)F)c1)C(=O)c1nc(-c2cc(Br)c(O)c(Br)c2)no1` [11a, 3-(3,5-dibromo-4-hydroxyphenyl)-N-methyl-N-(3-(trifluoromethyl)benzyl)-1,2,4-oxadiazole-5-carboxamide]: 7.74 µM; `O=C(O)COc1c(Br)cc(-c2noc(C(=O)N3CCC(Cc4ccccc4)CC3)n2)cc1Br` [39a, 2-(4-(5-(4-benzylpiperidine-1-carbonyl)-1,2,4-oxadiazol-3-yl)-2,6-dibromophenoxy) acetic acid]: 26.7 µM.
The same measure, in the same setting: next, `CC(C)(C)c1ccc(CNC(=O)c2nc(-c3cc(Cl)c(O)c(Cl)c3)no2)cc1` [136a, N-(4-tert-butylbenzyl)-3-(3,5-dichloro-4-hydroxyphenyl)-1,2,4-oxadiazole-5-carboxamide]: 2.95 µM.

Still in this assay, the particulars now being: thiadiazole-containing compounds (Table 12), read-out: IC50.
As to `Oc1c(Cl)cc(-c2nnc(-c3snnc3-c3ccccc3)s2)cc1Cl` [5h, 2,6-dichloro-4(5-(4-phenyl-1,2,3-thiadiazol-5-yl)-1,3,4-thiadiazol-2-yl)phenol], the IC50 was determined as 13.4 µM.
